Results from patent US20260274829A1, “NEW E3 UBIQUITIN LIGASE LIGAND, PROTEIN DEGRADATION AGENT AND USE THEREOF” (GLUETACS THERAPEUTICS (SHANGHAI) CO., LTD., priority 2023, published 2026).

target: T1, human Cereblon WT GST-tagged protein (Homo sapiens, UniProt Q96SW2); assay: CRBN binding, HTRF CEREBLON BINDING kit; details: CRBN binding, HTRF CEREBLON BINDING kit
T1 construct: purchased CISBIO 64BDCRBNPEH
In short: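 Binding inhibition was calculated from the 665/620 nm emission ratios, with blank wells and solvent wells as references. Test compounds competed for GST-tagged human Cereblon WT against a Thalidomide-Re reagent paired with GST Eu antibody. Plates were sealed and held at room temperature for 3 hours before the HTRF read.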

T1 sequence (Q96SW2 whole entry): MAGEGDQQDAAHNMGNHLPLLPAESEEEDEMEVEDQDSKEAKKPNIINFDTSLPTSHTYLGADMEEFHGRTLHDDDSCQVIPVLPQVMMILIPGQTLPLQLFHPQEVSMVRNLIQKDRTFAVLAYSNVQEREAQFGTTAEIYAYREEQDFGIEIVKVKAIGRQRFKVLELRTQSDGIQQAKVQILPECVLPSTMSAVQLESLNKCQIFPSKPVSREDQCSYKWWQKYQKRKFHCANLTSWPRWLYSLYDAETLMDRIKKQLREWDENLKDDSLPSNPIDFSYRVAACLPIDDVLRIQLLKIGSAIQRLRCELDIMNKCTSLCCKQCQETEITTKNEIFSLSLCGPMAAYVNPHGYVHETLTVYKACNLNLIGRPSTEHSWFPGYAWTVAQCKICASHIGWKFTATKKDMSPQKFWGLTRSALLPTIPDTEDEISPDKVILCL

| Compound | IC50 |
| --- | --- |
| COc1cc(N2CCC(N(C)Cc3cc(C4CCC(=O)NC4=O)cnc3F)CC2)ccc1Nc1ncc(Cl)c(Nc2ccccc2P(C)(C)=O)n1 (stereo not shown) [GT-07696, 3-(5-(((1-(4-((5-chloro-4-((2-(dimethylphosphoryl)phenyl)amino)pyrimidin-2-yl)amino)-3-methoxyphenyl)piperidin-4-yl)(methyl)amino)methyl)-6-fluoropyridin-3-yl)piperidine-2,6-dione] | < 500 nM |
| Cc1nc2c(F)cc(-c3nc(Nc4ccc(N5CCC(N(C)Cc6ccc(N7CCC(=O)NC7=O)cc6)CC5)cn4)ncc3F)cc2n1C(C)C [GT-06838, 1-(4-(((1-(6-((5-fluoro-4-(4-fluoro-1-isopropyl-2-methyl-1H-benzo[d]imidazol-6-yl)pyrimidin-2-yl)amino)pyridin-3-yl)piperidin-4-yl)(methyl)amino)methyl)phenyl)dihydropyrimidine-2,4(1H,3H)-dione] | 500 to 1000 nM |
| O=C1CCN(c2ccc(CN3CCN(c4ccc(-c5cc(F)c6c(c5)C(=O)N(C(C(=O)Nc5nccs5)c5ncn7c5CCC7)C6)cc4)CC3)nc2)C(=O)N1 (stereo not shown) [GT-06229, 2-(6,7-dihydro-5H-pyrrolo[1,2-c]imidazol-1-yl)-2-(6-(4-(4-((5-(2,4-dioxotetrahydropyrimidin-1(2H)-yl)pyridin-2-yl)methyl)piperazin-1-yl)phenyl)-4-fluoro-1-oxoisoindolin-2-yl)-N-(thiazol-2-yl)acetamide] | 500 to 1000 nM |
| Cc1ccc(-c2c(C)noc2C)cc1N(CC1CCN(Cc2ccc(N3CCC(=O)NC3=O)cc2)CC1)c1ccc(C2(C#N)CC2)cc1 [GT-04844, 1-(4-((5-(3,5-dimethylisoxazol-4-yl)-2-methylphenyl)((1-(4-(2,4-dioxotetrahydropyrimidin-1(2H)-yl)benzyl)piperidin-4-yl)methyl)amino)phenyl)cyclopropane-1-carbonitrile] | 500 to 1000 nM |
| O=C1CCN(c2cccc(CN3C[C@H]4C[C@@H]3CN4c3ccc(-c4cc(F)c5c(c4)C(=O)N(C(C(=O)Nc4nccs4)c4ncn6c4CCC6)C5)cc3)c2)C(=O)N1 (stereo partly drawn) [GT-06178, 2-(6,7-dihydro-5H-pyrrolo[1,2-c]imidazol-1-yl)-2-(6-(4-((1R,4R)-5-(3-(2,4-dioxotetrahydropyrimidin-1(2H)-yl)benzyl)-2,5-diazabicyclo[2.2.1]heptan-2-yl)phenyl)-4-fluoro-1-oxoisoindolin-2-yl)-N-(thiazol-2-yl)acetamide] | < 500 nM |
| COc1cc2nn(C3CCN(Cc4ccc(N5CCC(=O)NC5=O)c(F)c4)CC3)cc2cc1NC(=O)c1cccc(C(F)(F)F)c1 [GT-04751, N-(2-(1-(4-(2,4-dioxotetrahydropyrimidin-1(2H)-yl)-3-fluorobenzyl)piperidin-4-yl)-6-methoxy-2H-indazol-5-yl)-3-(trifluoromethyl)benzamide] | 1000 to 1900 nM |
| CN1CCN([C@@H]2CCCN(c3cnc(C(N)=O)c(Nc4ccc(C5CCN(Cc6ccc(C7CCC(=O)NC7=O)cc6)CC5)cc4)n3)C2)C1=O (stereo partly drawn) [GT-04798, 3-((4-(1-(4-(2,6-dioxopiperidin-3-yl)benzyl)piperidin-4-yl)phenyl)amino)-5-((R)-3-(3-methyl-2-oxoimidazolidin-1-yl)piperidin-1-yl)pyrazine-2-carboxamide] | < 500 nM |
| O=C1CCC(c2ccc(CN3CCN(c4ccc(-c5cc(F)c6c(c5)C(=O)N(C(C(=O)Nc5nccs5)c5ncn7c5CCC7)C6)cc4)CC3)cc2)C(=O)N1 (stereo not shown) [GT-06163, 2-(6,7-dihydro-5H-pyrrolo[1,2-c]imidazol-1-yl)-2-(6-(4-(4-(4-(2,6-dioxopiperidin-3-yl)benzyl)piperazin-1-yl)phenyl)-4-fluoro-1-oxoisoindolin-2-yl)-N-(thiazol-2-yl)acetamide] | 500 to 1000 nM |
| O=C1CCC(Nc2cccc(CN3CCN(c4ccc5c(c4)nc(NC(=O)c4cccc(C(F)(F)F)c4)n5[C@H]4CC[C@@H](CO)CC4)CC3)c2)C(=O)N1 (stereo partly shown) [GT-04985, N-(5-(4-(3-((2,6-dioxopiperidin-3-yl)amino)benzyl)piperazin-1-yl)-1-((1s,4s)-4-(hydroxymethyl)cyclohexyl)-1H-benzo[d]imidazol-2-yl)-3-(trifluoromethyl)benzamide] | 500 to 1000 nM |
| O=C1CCC(Nc2cccc(CN3CCC(N4CCN(c5ccc(-c6cc(F)c7c(c6)C(=O)N(C(C(=O)Nc6nccs6)c6ncn8c6CCC8)C7)cc5)CC4)CC3)c2)C(=O)N1 (stereo not shown) [GT-06331, 2-(6,7-dihydro-5H-pyrrolo[1,2-c]imidazol-1-yl)-2-(6-(4-(4-(1-(3-((2,6-dioxopiperidin-3-yl)amino)benzyl)piperidin-4-yl)piperazin-1-yl)phenyl)-4-fluoro-1-oxoisoindolin-2-yl)-N-(thiazol-2-yl)acetamide] | 1000 to 1900 nM |
| CN(Cc1ccc(N2CCC(=O)NC2=O)cc1)C1CCN(c2ccc(-c3cc(F)c4c(c3)C(=O)N(C(C(=O)Nc3nccs3)c3ncn5c3CCC5)C4)cc2)CC1 (stereo not shown) [GT-05219, 2-(6,7-dihydro-5H-pyrrolo[1,2-c]imidazol-1-yl)-2-(6-(4-(4-((4-(2,4-dioxotetrahydropyrimidin-1(2H)-yl)benzyl)(methyl)amino)piperidin-1-yl)phenyl)-4-fluoro-1-oxoisoindolin-2-yl)-N-(thiazol-2-yl)acetamide] | < 500 nM |

Other lines, results leading:

| IC50 | Compound |
| --- | --- |
| 500 to 1000 nM | NC(=O)c1ncc(N2CCCCC2)nc1Nc1ccc(C2CCN(Cc3cccc(N4CCC(=O)NC4=O)c3)CC2)cc1 [GT-04787, 3-((4-(1-(3-(2,4-dioxotetrahydropyrimidin-1(2H)-yl)benzyl)piperidin-4-yl)phenyl)amino)-5-(piperidin-1-yl)pyrazine-2-carboxamide] |
| 500 to 1000 nM | COc1cc(N2CCN(Cc3cncc(N4CCC(=O)NC4=O)c3)CC2)ccc1Nc1ncc(Cl)c(Nc2ccccc2P(C)(C)=O)n1 [GT-07709, 1-(5-((4-(4-((5-chloro-4-((2-(dimethylphosphoryl)phenyl)amino)pyrimidin-2-yl)amino)-3-methoxyphenyl)piperazin-1-yl)methyl)pyridin-3-yl)dihydropyrimidine-2,4(1H,3H)-dione] |
| 1000 to 1900 nM | COc1cc(N2CCC(N3CCN(Cc4cccc(N5CCC(=O)NC5=O)c4)CC3)CC2)ccc1Nc1ncc(Cl)c(Nc2ccccc2P(C)(C)=O)n1 [GT-07604, 1-(3-((4-(1-(4-((5-chloro-4-((2-(dimethylphosphoryl)phenyl)amino)pyrimidin-2-yl)amino)-3-methoxyphenyl)piperidin-4-yl)piperazin-1-yl)methyl)phenyl)dihydropyrimidine-2,4(1H,3H)-dione] |
| 1000 to 1900 nM | O=C1CCN(c2cc(CN3C[C@H]4C[C@@H]3CN4c3ccc(-c4cc(F)c5c(c4)C(=O)N(C(C(=O)Nc4nccs4)c4ncn6c4CCC6)C5)cc3)c(F)cn2)C(=O)N1 (stereo partly drawn) [GT-07386, 2-(6,7-dihydro-5H-pyrrolo[1,2-c]imidazol-1-yl)-2-(6-(4-((1R,4R)-5-((2-(2,4-dioxotetrahydropyrimidin-1(2H)-yl)-5-fluoropyridin-4-yl)methyl)-2,5-diazabicyclo[2.2.1]heptan-2-yl)phenyl)-4-fluoro-1-oxoisoindolin-2-yl)-N-(thiazol-2-yl)acetamide] |
| < 500 nM | CN(Cc1cccc(N2CCC(=O)NC2=O)c1)C1CCN(c2ccc(-c3cc(F)c4c(c3)C(=O)N(C(C(=O)Nc3nccs3)c3ncn5c3CCC5)C4)cc2)CC1 (stereo not shown) [GT-05281, 2-(6,7-dihydro-5H-pyrrolo[1,2-c]imidazol-1-yl)-2-(6-(4-(4-((3-(2,4-dioxotetrahydropyrimidin-1(2H)-yl)benzyl)(methyl)amino)piperidin-1-yl)phenyl)-4-fluoro-1-oxoisoindolin-2-yl)-N-(thiazol-2-yl)acetamide] |
| 1000 to 1900 nM | O=C1CCN(c2ccc(CN3CCN(C4CCN(c5ccc(Nc6ncc7nc(Nc8ccccc8)n(C8CCCC8)c7n6)cc5)CC4)CC3)nc2)C(=O)N1 [GT-05941, 1-(6-((4-(1-(4-((9-cyclopentyl-8-(phenylamino)-9H-purin-2-yl)amino)phenyl)piperidin-4-yl)piperazin-1-yl)methyl)pyridin-3-yl)dihydropyrimidine-2,4(1H,3H)-dione] |
| 500 to 1000 nM | O=C1CCC(c2ccc(CN3C[C@@H]4C[C@H]3CN4c3ccc(-c4cc(F)c5c(c4)C(=O)N(C(C(=O)Nc4nccs4)c4ncn6c4CCC6)C5)cc3)cc2)C(=O)N1 (stereo partly drawn) [GT-05115, 2-(6,7-dihydro-5H-pyrrolo[1,2-c]imidazol-1-yl)-2-(6-(4-((1S,4S)-5-(4-(2,6-dioxopiperidin-3-yl)benzyl)-2,5-diazabicyclo[2.2.1]heptan-2-yl)phenyl)-4-fluoro-1-oxoisoindolin-2-yl)-N-(thiazol-2-yl)acetamide] |
| 500 to 1000 nM | COc1cc(N2CCC(N3CCN(Cc4ccc(C5CCC(=O)NC5=O)cn4)CC3)CC2)ccc1Nc1ncc(Cl)c(Nc2ccccc2P(C)(C)=O)n1 (stereo not shown) [GT-07613, 3-(6-((4-(1-(4-((5-chloro-4-((2-(dimethylphosphoryl)phenyl)amino)pyrimidin-2-yl)amino)-3-methoxyphenyl)piperidin-4-yl)piperazin-1-yl)methyl)pyridin-3-yl)piperidine-2,6-dione] |
| 1000 to 1900 nM | CN(Cc1cccc(NC2CCC(=O)NC2=O)c1)C1CCN(c2ccc(Nc3ncc4nc(Nc5ccccc5)n(C5CCCC5)c4n3)cc2)CC1 (stereo not shown) [GT-07094, 3-((3-(((1-(4-((9-cyclopentyl-8-(phenylamino)-9H-purin-2-yl)amino)phenyl)piperidin-4-yl)(methyl)amino)methyl)phenyl)amino)piperidine-2,6-dione] |
| 1000 to 1900 nM | COc1cc2nn(C3CCN(Cc4cccc(N5CCC(=O)NC5=O)c4)CC3)cc2cc1NC(=O)c1cccc(C(F)(F)F)n1 [GT-04774, N-(2-(1-(3-(2,4-dioxotetrahydropyrimidin-1(2H)-yl)benzyl)piperidin-4-yl)-6-methoxy-2H-indazol-5-yl)-6-(trifluoromethyl)picolinamide] |
| 500 to 1000 nM | CN1CCN([C@@H]2CCCN(c3cnc(C(N)=O)c(Nc4ccc(C5CCN(Cc6ccc(N7CCC(=O)NC7=O)cc6F)CC5)cc4)n3)C2)C1=O [GT-04803, (R)-3-((4-(1-(4-(2,4-dioxotetrahydropyrimidin-1(2H)-yl)-2-fluorobenzyl)piperidin-4-yl)phenyl)amino)-5-(3-(3-methyl-2-oxoimidazolidin-1-yl)piperidin-1-yl)pyrazine-2-carboxamide] |
